According to ChEMBL document CHEMBL5346873, “Strategic modification of low-activity natural antimicrobial peptides confers antibacterial potential in vitro and in vivo” (Eur J Med Chem, 2023):
Calls of active or inactive are those of the source.

What was measured:
[1] = tested on: Pseudomonas aeruginosa; experiment: Antibacterial activity against Pseudomonas aeruginosa incubated for 16 to 20 hrs; assay type: functional; details: time 16-20 hrs
[2] = tested on: Escherichia coli; experiment: Antibacterial activity against Escherichia coli incubated for 16 to 20 hrs; assay type: functional; details: time 16-20 hrs
[3] = tested on: Klebsiella aerogenes; experiment: Antibacterial activity against Enterobacter aerogenes incubated for 16 to 20 hrs; assay type: functional; details: time 16-20 hrs
[4] = tested on: Vibrio harveyi; experiment: Antibacterial activity against Vibrio harveyi incubated for 16 to 20 hrs; assay type: functional; details: time 16-20 hrs
[5] = tested on: Vibrio anguillarum; experiment: Antibacterial activity against Listonella anguillarum incubated for 16 to 20 hrs; assay type: functional; details: time 16-20 hrs
[6] = tested on: Salmonella enterica; experiment: Antibacterial activity against Salmonella enterica incubated for 16 to 20 hrs; assay type: functional; details: time 16-20 hrs
[7] = tested on: Staphylococcus haemolyticus; experiment: Antibacterial activity against Staphylococcus haemolyticus incubated for 16 to 20 hrs; assay type: functional; details: time 16-20 hrs
[8] = tested on: Streptococcus iniae; experiment: Antibacterial activity against Streptococcus iniae incubated for 16 to 20 hrs; assay type: functional; details: time 16-20 hrs
[9] = tested on: Streptococcus agalactiae; experiment: Antibacterial activity against Streptococcus agalactiae incubated for 16 to 20 hrs; assay type: functional; details: time 16-20 hrs
[10] = tested on: Vibrio vulnificus; experiment: Antibacterial activity against Vibrio vulnificus V2 incubated for 16 to 20 hrs; assay type: functional; details: time 16-20 hrs
[11] = tested on: Pseudomonas aeruginosa; experiment: Bactericidal activity against Pseudomonas aeruginosa incubated overnight; assay type: functional
[12] = tested on: Klebsiella pneumoniae; experiment: Bactericidal activity against NDM Klebsiella pneumoniae incubated overnight; assay type: functional
[13] = tested on: Escherichia coli; experiment: Bactericidal activity against Escherichia coli incubated overnight; assay type: functional
[14] = tested on: Vibrio vulnificus; experiment: Bactericidal activity against Vibrio vulnificus 204 incubated overnight; assay type: functional
[15] = tested on: Edwardsiella tarda; experiment: Bactericidal activity against Edwardsiella tarda incubated overnight; assay type: functional
[16] = tested on: Vibrio anguillarum; experiment: Bactericidal activity against Listonella anguillarum incubated overnight; assay type: functional
[17] = tested on: Klebsiella oxytoca; experiment: Bactericidal activity against Klebsiella oxytoca incubated overnight; assay type: functional
[18] = tested on: Salmonella typhimurium; experiment: Bactericidal activity against Salmonella typhimurium incubated overnight; assay type: functional, Salmonella enterica subsp. enterica serovar Typhimurium; details: Salmonella enterica
[19] = tested on: Streptococcus agalactiae; experiment: Bactericidal activity against Streptococcus agalactiae incubated overnight; assay type: functional
[20] = tested on: Enterococcus faecalis; experiment: Bactericidal activity against Enterococcus faecalis incubated overnight; assay type: functional
[21] = tested on: Enterococcus faecium; experiment: Bactericidal activity against Enterococcus faecium incubated overnight; assay type: functional
[22] = tested on: Candida tropicalis; experiment: Fungicidal activity against Candida tropicalis incubated overnight; assay type: functional
[23] = tested on: Vibrio vulnificus; experiment: Bactericidal activity against Vibrio vulnificus V1 incubated overnight; assay type: functional
[24] = tested on: Vibrio vulnificus; experiment: Bactericidal activity against Vibrio vulnificus V2 incubated overnight; assay type: functional
[25] = Cytotoxicity against human HaCaT cells incubated for 24 hrs by alamar blue assay; assay type: toxicity, cell-based; details: read-out: LD50
[26] = Cytotoxicity against human HaCaT cells incubated for 24 hrs by MTS assay; assay type: toxicity, cell-based; details: read-out: LD50
[27] = tested on: Vibrio vulnificus; experiment: Antibacterial activity against Vibrio vulnificus 204 assessed as LPS neutralization at 0.25 to 2 times MIC measured after 1 hr by LAL assay; assay type: functional, organism-based
[28] = tested on: Vibrio vulnificus; experiment: Antibiofilm activity against Vibrio vulnificus 204 assessed as inhibition of biofilm formation at 25 to 100 ug/ml incubated for 24 hrs by crystal violet staining based assay; assay type: functional, organism-based; details: dose 25-100 µg/ml
[29] = tested on: Vibrio vulnificus; experiment: Antibiofilm activity against Vibrio vulnificus V2 assessed as inhibition of biofilm formation at 25 to 100 ug/ml incubated for 24 hrs by crystal violet staining based assay; assay type: functional, organism-based; details: dose 25-100 µg/ml
[30] = tested on: Vibrio vulnificus; experiment: Antibiofilm activity against Vibrio vulnificus V1 assessed as inhibition of biofilm formation at 25 to 100 ug/ml incubated for 24 hrs by crystal violet staining based assay; assay type: functional, organism-based; details: dose 25-100 µg/ml
[31] = tested on: Vibrio vulnificus; experiment: Antibiofilm activity against Vibrio vulnificus V3 assessed as inhibition of biofilm formation at 25 to 100 ug/ml incubated for 24 hrs by crystal violet staining based assay; assay type: functional, organism-based; details: dose 25-100 µg/ml
[32] = tested on: Vibrio vulnificus; experiment: Antibiofilm activity against Vibrio vulnificus V1 assessed as inhibition of biofilm formation at 50 to 100 ug/ml incubated for 24 hrs by crystal violet staining based assay; assay type: functional, organism-based; details: dose 50-100 µg/ml
[33] = tested on: Vibrio vulnificus; experiment: Antibiofilm activity against Vibrio vulnificus V2 assessed as inhibition of biofilm formation at 50 to 100 ug/ml incubated for 24 hrs by crystal violet staining based assay; assay type: functional, organism-based; details: dose 50-100 µg/ml
[34] = tested on: Vibrio vulnificus; experiment: Antibiofilm activity against Vibrio vulnificus V3 assessed as inhibition of biofilm formation at 50 to 100 ug/ml incubated for 24 hrs by crystal violet staining based assay; assay type: functional, organism-based; details: dose 50-100 µg/ml
[35] = tested on: Vibrio vulnificus; experiment: Antibiofilm activity against Vibrio vulnificus V1 assessed as inhibition of biofilm formation at 25 ug/ml incubated for 24 hrs by crystal violet staining based assay; assay type: functional, organism-based; details: dose 25.0 µg/ml
[36] = tested on: Cell membrane; experiment: Induction of outer membrane lysis in Vibrio vulnificus at 100 ug/ml by NPN-dye based fluorescence analysis; assay type: subcellular; details: dose 100.0 µg/ml
[37] = tested on: Cell membrane; experiment: Induction of membrane depolarization in Vibrio vulnificus at 100 ug/ml by DiBAC4(3) dye based fluorescence analysis; assay type: subcellular; details: dose 100.0 µg/ml
[38] = tested on: Cell membrane; experiment: Induction of membrane deformation in Vibrio vulnificus at 1 to 2 times MIC incubated for 30 mins by SEM analysis; assay type: subcellular
[39] = tested on: Cell membrane; experiment: Induction of membrane lysis in Vibrio vulnificus at 1 time MIC incubated for 1 hr by TEM analysis; assay type: subcellular
[40] = tested on: Vibrio vulnificus; experiment: Antibacterial activity against Vibrio vulnificus in presence of 0.1 ug/ml pepsin; assay type: functional, organism-based
[41] = tested on: Vibrio vulnificus; experiment: Antibacterial activity against Vibrio vulnificus in presence of 1 to 10 ug/ml pepsin; assay type: functional, organism-based
[42] = tested on: Vibrio vulnificus; experiment: Antibacterial activity against Vibrio vulnificus in presence of 1 to 10 ug/ml trypsin; assay type: functional, organism-based
[43] = tested on: Klebsiella pneumoniae; experiment: Antibacterial activity against Klebsiella pneumoniae expressing NDM-1 in presence of human serum; assay type: functional, organism-based
[44] = tested on: Streptococcus agalactiae; experiment: Synergistic antibacterial activity against Streptococcus agalactiae in presence of doxycycline by checkerboard microtiter plate assay; assay type: functional
[45] = tested on: Acinetobacter baumannii; experiment: Antibacterial activity against Acinetobacter baumannii; assay type: functional
[46] = tested on: Streptococcus iniae; experiment: Synergistic antibacterial activity against Streptococcus iniae in presence of doxycycline by checkerboard microtiter plate assay; assay type: functional
[47] = tested on: Streptococcus agalactiae; experiment: Synergistic antibacterial activity against Streptococcus agalactiae in presence of meropenem by checkerboard microtiter plate assay; assay type: functional
[48] = tested on: Acinetobacter baumannii; experiment: Additive antibacterial activity against Acinetobacter baumannii in presence of meropenem by checkerboard microtiter plate assay; assay type: functional
[49] = tested on: Vibrio vulnificus; experiment: Synergistic antibacterial activity against Vibrio vulnificus in presence of meropenem by checkerboard microtiter plate assay; assay type: functional
[50] = tested on: Vibrio vulnificus; experiment: Synergistic antibacterial activity against Vibrio vulnificus assessed as doxycycline MIC by checkerboard microtiter plate assay; assay type: functional
[51] = tested on: Acinetobacter baumannii; experiment: Additive antibacterial activity against Acinetobacter baumannii assessed as meropenem MIC by checkerboard microtiter plate assay; assay type: functional
[52] = tested on: Pseudomonas aeruginosa; experiment: Additive antibacterial activity against Pseudomonas aeruginosa assessed as meropenem MIC by checkerboard microtiter plate assay; assay type: functional
[53] = tested on: Klebsiella aerogenes; experiment: Synergistic antibacterial activity against Enterobacter aerogenes assessed as meropenem MIC by checkerboard microtiter plate assay; assay type: functional
[54] = tested on: Streptococcus agalactiae; experiment: Synergistic antibacterial activity against Streptococcus agalactiae assessed as fractional inhibitory concentration in presence of doxycycline by checkerboard microtiter plate assay; assay type: functional
[55] = tested on: Acinetobacter baumannii; experiment: Synergistic antibacterial activity against Acinetobacter baumannii assessed as fractional inhibitory concentration in presence of doxycycline by checkerboard microtiter plate assay; assay type: functional
[56] = tested on: Vibrio vulnificus; experiment: Synergistic antibacterial activity against Vibrio vulnificus assessed as fractional inhibitory concentration in presence of doxycycline by checkerboard microtiter plate assay; assay type: functional
[57] = tested on: Streptococcus agalactiae; experiment: Synergistic antibacterial activity against Streptococcus agalactiae assessed as fractional inhibitory concentration in presence of meropenem by checkerboard microtiter plate assay; assay type: functional
[58] = tested on: Klebsiella aerogenes; experiment: Synergistic antibacterial activity against Enterobacter aerogenes assessed as fractional inhibitory concentration in presence of meropenem by checkerboard microtiter plate assay; assay type: functional

H-KKCIAKAILKKAKKLLKKLVNP-OH
0.14: FIC [54] | FIC [56] | FIC [58]
< 1.56 µg/mL: MIC [7] | MIC [8]
0.195 µg/mL: MIC [44] | MIC [47] | MIC [49] | MIC [51] | MIC [52]
12.5 µg/mL: MIC [2] | MIC [3] | MIC [6] | MIC [10] | MBC [13] | MBC [23] | MBC [24]
> 100 µg/mL: MBC [15] | MBC [20] | MBC [21] | MFC [22] | CC50 at 24 h [25] | CC50 at 24 h [26]
50 µg/mL: MIC [5] | MBC [11] | MBC [16] | MBC [17]
0.048 µg/mL: MIC [46] | MIC [48]
3.12 µg/mL: MIC [9] | MBC [19] | MIC [45]
25 µg/mL: MIC [1] | MIC [4] | MBC [12]
0.006 µg/mL: MIC [50]
0.003 µg/mL: MIC [53]
inactive: Activity [27] | Activity [35]
6.25 µg/mL: MBC [14]
100 µg/mL: MBC [18]
0.07: FIC [55] | FIC [57]
active: Activity [28] | Activity [29] | Activity [30] | Activity [31] | Activity [32] | Activity [33] | Activity [34] | Activity [36] | Activity [37] | Activity [38] | Activity [39] | Activity [40] | Activity [41] | Activity [42] | Activity [43]
